Data: the supplement of paper PMC10307832

Key:
Test in all cases: relative viability (nuclei count vs DMSO), 5 days (fraction); higher = more cells survive
[1] = compound: C(C(=O)C(=O)O)Br [Bromopyruvate] + Cc1nc(Nc2ncc(C(=O)Nc3c(C)cccc3Cl)s2)cc(N2CCN(CCO)CC2)n1 [Dasatinib] (partner 0.075 µM)
Outline: (§1)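 Each reported value is a median over duplicate plates. It expresses relative viability: treated-well nuclei count divided by vehicle-well nuclei count. Lung cancer cell lines in 1536-well plates were dosed by pin tool a day after seeding, alone with one drug or with a fixed anchor-drug dose plus five library-drug doses (not always all listed) in √10 steps, and nuclei were counted after 5 days.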

[2] = compound: C(C(=O)C(=O)O)Br [Bromopyruvate] + CCNC(=O)c1noc(-c2cc(C(C)C)c(O)cc2O)c1-c1ccc(CN2CCOCC2)cc1 [Luminespib] (partner 0.01 µM)
Outline: as §1

Bicalutamide + Lapatinib = compound: CC(O)(CS(=O)(=O)c1ccc(F)cc1)C(=O)Nc1ccc(C#N)c(C(F)(F)F)c1 [Bicalutamide] + CS(=O)(=O)CCNCc1ccc(-c2ccc3ncnc(Nc4ccc(OCc5cccc(F)c5)c(Cl)c4)c3c2)o1 [Lapatinib] (partner 2 µM)
Outline: as §1

[3] = compound: C(C(=O)C(=O)O)Br [Bromopyruvate] + CC(C)C[C@H](NC(=O)[C@H](Cc1ccccc1)NC(=O)c1cnccn1)B(O)O [Bortezomib] (partner 0.002 µM)
Outline: as §1

UMC-11
relative viability ([1]; first compound 1 µM): 0.504 | relative viability ([1]; first compound 3.162 µM): 0.497 | relative viability ([1]; first compound 10 µM): 0.484 | relative viability ([1]; first compound 31.62 µM): 0.433 | relative viability ([1]; first compound 100 µM): 0.495 | relative viability ([2]; first compound 1 µM): 0.959 | relative viability ([2]; first compound 3.162 µM): 0.998 | relative viability ([2]; first compound 10 µM): 0.987 | relative viability ([2]; first compound 31.62 µM): 1.05 | relative viability ([2]; first compound 100 µM): 1.06 | relative viability (Bicalutamide + Lapatinib; first compound 0.08 µM): 0.951 | relative viability (Bicalutamide + Lapatinib; first compound 0.253 µM): 0.723 | relative viability (Bicalutamide + Lapatinib; first compound 0.8 µM): 1.12 | relative viability (Bicalutamide + Lapatinib; first compound 2.53 µM): 0.899 | relative viability ([3]; first compound 1 µM): 0.817 | relative viability ([3]; first compound 3.162 µM): 0.79 | relative viability ([3]; first compound 10 µM): 0.846 | relative viability ([3]; first compound 31.62 µM): 0.645 | relative viability ([3]; first compound 100 µM): 0.721
